Legend:
[1] = tested on: Bifidobacterium; test: i-screen in vitro fermentation of fecal microbiota pool: Bifidobacterium growth; type: cell-based; details: second i-screen, relative to untreated control (1.0)
Method: (§1) Samples containing 8 mg/mL (0.8% w/v) of SPS or SOS were diluted by a factor of two to provide samples containing 4 mg/mL (0.4% w/v) of SPS or SOS. The effect of Sample Nos. 1-12 at a concentration of 4 mg/mL on a panel of over twenty-five gut microbiota was assessed after 24 h of fermentation using an in vitro fermentation screening platform (“i-screen”), as described by Fehlbaum (2018). Specifically, a standard fecal microbiota pool derived from 5-6 healthy adults (health based on exclusion criteria) was used that was pre-cultured overnight from a frozen stock. […] A number of sphingan samples and comparative samples—plant extracts (e.g., pectins, pectin oligosaccharides, and carrageenans) and biogums (e.g., xanthan and xanthan oligosaccharides)) were analyzed at a concentration of about 4 mg/mL, which corresponds to a dose of about 4 g/day. […]
(§2) Shifts in microbiota composition were determined by next generation sequencing, which recognizes bacteria at the genus level and in many cases (but not all) at the species level. To have a uniform distribution of samples in the sequencing pool total bacterial load was established by a quantitative Polymerase Chain Reaction (“PCR”) using a universal primer-probe set. […] Next, amplicons were gel-purified, quantified and pooled. […]
(§3) The standard controls were carried out in triplicate. […] The effect was determined relative to an untreated control. […]

[2] = tested on: Blautia; test: i-screen in vitro fermentation of fecal microbiota pool: Blautia growth; type: cell-based; details: second i-screen, pool H1, relative to untreated control (1.0)
Method: as §1, §2, §3

[3] = tested on: Faecalibacterium; test: i-screen in vitro fermentation of fecal microbiota pool: Faecalibacterium growth; type: cell-based; details: second i-screen, pool H1, relative to untreated control (1.0)
Method: as §1, §2, §3

[4] = tested on: Parabacteroides; test: i-screen in vitro fermentation of fecal microbiota pool: Parabacteroides growth; type: cell-based; details: second i-screen, pool H1, relative to untreated control (1.0)
Method: as §1, §2, §3

[5] = tested on: Lachnospiraceae unclassified; test: i-screen in vitro fermentation: Lachnospiraceae unclassified growth; type: cell-based; details: second i-screen, relative to untreated control (1.0)
Method: as §1, §2, §3

[6] = tested on: Clostridium XlVa; test: i-screen in vitro fermentation: Clostridium XlVa growth; type: cell-based; details: second i-screen, relative to untreated control (1.0)
Method: The effect of Sample Nos. 1-12 at a concentration of 4 mg/mL on a panel of over twenty-five gut microbiota was assessed after 24 h of fermentation using an in vitro fermentation screening platform (“i-screen”), as described by Fehlbaum (2018). Specifically, a standard fecal microbiota pool derived from 5-6 healthy adults (health based on exclusion criteria) was used that was pre-cultured overnight from a frozen stock. This was followed by dilution in microtiter plates in which the samples were added and subsequently anaerobically incubated for 24 h at 37° C. After incubation, culture samples were harvested and processed for further analysis. […] A number of sphingan samples and comparative samples—plant extracts (e.g., pectins, pectin oligosaccharides, and carrageenans) and biogums (e.g., xanthan and xanthan oligosaccharides)) were analyzed at a concentration of about 4 mg/mL, which corresponds to a dose of about 4 g/day.

[7] = tested on: Coprococcus; test: i-screen in vitro fermentation: Coprococcus growth; type: cell-based; details: second i-screen, relative to untreated control (1.0)
Method: as §1, §2, §3

[8] = tested on: Phascolarctobacterium; test: i-screen in vitro fermentation: Phascolarctobacterium growth; type: cell-based; details: second i-screen, relative to untreated control (1.0)
Method: as §1, §2, §3

[9] = tested on: Butyricicoccus; test: i-screen in vitro fermentation: Butyricicoccus growth; type: cell-based; details: second i-screen, relative to untreated control (1.0)
Method: as §1, §2, §3

[10] = tested on: NF-κB; test: Caco-2/THP1-Blue co-culture: NF-κB activity after LPS; type: cell-based, human; details: control tests, versus LPS+
Text: (§4) Samples collected from the SHIME experiment described above were used to evaluate in vitro the effect of the fermented products on intestinal epithelial barrier function and immune markers. These include samples from the proximal and distal colon reactors of three different donors, collected at the end of the control and treatment periods.
THP1-Blue™ (InvivoGen) cells were maintained in Roswell Park Memorial Institute (RPMI) 1640 medium containing glucose and glutamine, supplemented with HEPES, sodium pyruvate and 10% (v/v) H1-FBS. THP1-Blue™ are THP1 human monocytes stably transfected with a reporter construct expressing a secreted alkaline phosphatase (SEAP) gene under the control of a promoter inducible by the transcription factor nuclear factor kappa B (NF-κB). Upon TLR activation (e.g., by lipopolysaccharide (LPS); isolated from Gram-negative bacteria), NF-κB becomes activated and induces the expression and secretion of SEAP. SEAP activity can then be measured in the supernatants by using the QUANTI-Blue reagent (InvivoGen). […]
Briefly, the apical compartment (containing the Caco-2 cells) was filled with sterile-filtered (0.22 μm) colonic SHIME suspensions or with different concentrations of live bacteria. […] Cells were treated for 24 h, after which the TEER was measured (=24 h time point). […]

[11] = tested on: IL-1β; test: Caco-2/THP1-Blue co-culture: IL-1β secretion after LPS; type: cell-based, human; details: control tests, versus LPS+
Text: as §4
(§5) Briefly, the apical compartment (containing the Caco-2 cells) was filled with sterile-filtered (0.22 μm) colonic SHIME suspensions or with different concentrations of live bacteria. Cells were also treated apically with sodium butyrate (NaB) (Sigma-Aldrich) as positive control. The basolateral compartment (containing the THP1-Blue™ cells) was filled with Caco-2 complete medium. Cells were also exposed to Caco-2 complete medium in both chambers as control. Cells were treated for 24 h, after which the TEER was measured (=24 h time point). After subtracting the TEER of the empty insert, all 24 h values were normalized to its own 0 h value (to account for the differences in initial TEER of the different inserts) and are presented as percentage of initial value. Then, the basolateral supernatant was discarded, and cells were stimulated at the basolateral side with Caco-2 complete medium containing ultrapure LPS (Escherichia coli K12, InvivoGen). […]

[12] = tested on: Caco-2/THP1-Blue™ co-cultures; test: Caco-2/THP1-Blue co-culture: transepithelial electrical resistance (TEER); type: cell-based, human; details: control tests, apical treatment 24 h, versus complete medium
Text: To mimic the interface between host and gut microbiome, several in vitro models have been developed in the past years which include the use of intestinal epithelial-like cells and immune cells of human origin. The model used herein was a co-culture model of intestinal epithelial-like cells (Caco-2 cells) and human monocytes/macrophages (THP1 cells). (See FIG. 14; see also Possemiers (2013) Satsu (2006).) Caco-2, when seeded on suitable supports, spontaneously differentiate into mature enterocyte-like cells, characterized by polarization, presence of villi, formation of domes, presence of tight junctions and vectorial transport and expression of apical brush-border enzymes (reviewed by Sambuy (2005)). THP1 monocytes, isolated from a human patient with acute leukemia, differentiate into macrophage-like cells upon phorbol 12-myristate 13-acetate (PMA) treatment. […] The ‘tightness’ of these junctions can be measured as transepithelial electrical resistance (TEER), with a high TEER corresponding to a tighter barrier. Upon loss of barrier function, the paracellular transport (in-between cells) of fluids increases, which can be measured as a reduction of the TEER. […] This is possibly due to cytokine-mediated disruption of tight junctions and can be measured as a decrease in TEER. […]

[13] = tested on: IL-6; test: Caco-2/THP1-Blue co-culture: IL-6 secretion after LPS; type: cell-based, human; details: control tests, versus LPS+
Text: as §4, §5

[14] = tested on: IL-10; test: Caco-2/THP1-Blue co-culture: IL-10 secretion after LPS; type: cell-based, human; details: control tests, versus LPS+
Text: as §4, §5

[15] = tested on: TNF-α; test: Caco-2/THP1-Blue co-culture: TNF-α secretion after LPS; type: cell-based, human; details: control tests, versus LPS+
Text: as §4, §5

[16] = tested on: IL-8; test: Caco-2/THP1-Blue co-culture: IL-8 secretion after LPS; type: cell-based, human; details: control tests, versus LPS+
Text: as §4, §5

[17] = tested on: CXCL10; test: Caco-2/THP1-Blue co-culture: CXCL10 secretion after LPS; type: cell-based, human; details: control tests, versus LPS+
Text: as §4, §5

[18] = tested on: MCP-1; test: Caco-2/THP1-Blue co-culture: MCP-1 secretion after LPS; type: cell-based, human; details: control tests, versus LPS+
Text: as §4, §5

CC1(C)S[C@@H]2[C@H](NC(=O)[C@H](N)c3ccc(O)cc3)C(=O)N2[C@H]1C(=O)O [CS20, Amoxicillin]
Bifid. growth [1]: 0.24 | Blaut. growth [2]: 0.23 | Faecal. growth [3]: 0.37 | Para. growth [4]: 12.10 | Lachn. U. growth [5]: 0.04 | ClX1Va growth [6]: 0.03 | Copro. growth [7]: 0.04 | Phasc. growth [8]: 0.08 | Butyr. growth [9]: 0.00

C[C@]12CCC(=O)C=C1CC[C@@H]1[C@@H]2[C@@H](O)C[C@@]2(C)[C@H]1CC[C@]2(O)C(=O)CO [HC, hydrocortisone]
LPS-induced NF-κB transcriptional activity [10]: inhibiting | LPS-induced IL-1β expression [11]: did not reduce

CCCC(=O)[O-].[Na+] [NaB, sodium butyrate]
TEER of the Caco-2 monolayer [12]: maintain the TEER | LPS-induced NF-κB transcriptional activity [10]: increased | LPS-induced IL-6 secretion [13]: selectively increased | LPS-induced IL-10 secretion [14]: selectively increased | LPS-induced IL-1β expression [11]: did not reduce | LPS-induced TNF-α [15]: selectively inhibited | LPS-induced IL-8 [16]: selectively inhibited | LPS-induced CXCL10 [17]: selectively inhibited | LPS-induced MCP-1 [18]: selectively inhibited

— patent US11622974B2, “Prebiotic composition and its use” (CP KELCO U.S., INC., priority 2019, dated 2023)
